In PMC3478282, “Probing the Putative Active Site of YjdL: An Unusual Proton-Coupled Oligopeptide Transporter from E. coli” (PLoS ONE, 2012):

How the values were obtained:
Assay type in all cases: cell-based, E. coli
[1] = molecular target: T1, YjdL Asp392Glu (Escherichia coli, UniProt P39276, D392E); assay: β-Ala-Lys(AMCA) uptake assay, YjdL Asp392Glu; conditions: standard conditions: 0.2 mM, 5 min, pH 6.5 (Figure 3)
T1 construct: host or cells: E. coli BL21(DE3)pLysS
Experimental: (§1) Plasmids were transformed into E. coli BL21(DE3)pLysS cells by heat shock and transformants were selected on agar plates containing 100 µg/mL ampicillin and 34 µg/mL chloramphenicol. Single transformants were inoculated into 2 mL LB-media with antibiotics as above and grown overnight. The cultures were diluted 1∶50 in 5 mL LB-media with antibiotics as above, and at an OD600 of 0.5–0.8 protein expression was induced by the addition of 1 mM isopropyl β-D-1-thiogalactopyranoside (IPTG). The cells were harvested after three hours of induction by centrifugation and resuspended in uptake buffer (50 mM MES pH 6.5, 140 mM NaCl, 5.4 mM KCl, 1.8 mM CaCl2, 0.8 mM MgSO4, and 5 mM glucose).
(§2) Uptake assays were performed as previously described, [20]. In a final assay volume of 100 µL; 0.2 mM β-Ala-Lys-N-7-amino-4-methylcoumarin-3-acetic acid (β-Ala-Lys(AMCA), Biotrend) (10 µL) and various concentrations of ligands (purchased from Bachem or Sigma-Aldrich) or uptake buffer (50 µL) were incubated with bacterial cell suspension (OD600 = 10, 40 µL) at 37°C. […] Finally the cell pellet was resuspended in 100 µL uptake buffer, and the uptake was quantified by fluorescence measurements (excitation at 340 nm and emission at 460 nm) on a Safire 2 fluorimeter. Non-specific uptake was measured as described above on IPTG-induced E. coli BL21(DE3)pLysS cells harboring the empty pTTQ18 vector. […]

[2] = molecular target: T2, YjdL Lys117Arg (Escherichia coli, UniProt P39276, K117R); assay: β-Ala-Lys(AMCA) uptake assay, YjdL Lys117Arg; conditions: 0.2 mM, 5 min, pH 6.5 (Figure 3)
T2 construct: host or cells: E. coli BL21(DE3)pLysS
Experimental: as §1, §2

[3] = molecular target: T3, YjdL Tyr25Leu (Escherichia coli, UniProt P39276, Y25L); assay: β-Ala-Lys(AMCA) uptake assay, YjdL Tyr25Leu; conditions: 0.2 mM, 5 min, pH 6.5 (Figure 3)
T3 construct: expressed in transfected cells; host or cells: E. coli BL21(DE3)pLysS, pTTQ18-yjdL mutant (QuikChange)
Experimental: as §1, §2

T1 sequence (P39276 whole entry D392E): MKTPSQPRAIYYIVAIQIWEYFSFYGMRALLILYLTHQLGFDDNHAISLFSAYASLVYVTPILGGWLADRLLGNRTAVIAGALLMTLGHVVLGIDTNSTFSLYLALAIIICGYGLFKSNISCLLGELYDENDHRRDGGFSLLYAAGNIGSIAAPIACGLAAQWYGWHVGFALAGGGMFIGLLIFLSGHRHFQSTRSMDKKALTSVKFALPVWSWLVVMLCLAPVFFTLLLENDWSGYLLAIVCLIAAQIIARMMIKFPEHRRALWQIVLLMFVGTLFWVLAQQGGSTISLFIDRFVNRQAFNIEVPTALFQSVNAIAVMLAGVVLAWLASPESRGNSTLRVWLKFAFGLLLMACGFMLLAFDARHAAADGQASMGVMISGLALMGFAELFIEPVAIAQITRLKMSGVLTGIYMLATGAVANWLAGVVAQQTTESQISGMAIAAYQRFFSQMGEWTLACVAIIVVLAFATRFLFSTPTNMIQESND
T3 sequence (P39276 whole entry Y25L): as the sequence (P39276 whole entry D392E) above, with Y25L, E392D counted along it
T2 sequence (P39276 whole entry K117R): as the sequence (P39276 whole entry D392E) above, with K117R, E392D counted along it

## β-Ala-Lys-N-7-amino-4-methylcoumarin-3-acetic acid [β-Ala-Lys(AMCA)]
[1]
  β-Ala-Lys(AMCA) uptake level, YjdL Asp392Glu: 26%
[2]
  β-Ala-Lys(AMCA) uptake level, YjdL Lys117Arg: 17%
[3]
  β-Ala-Lys(AMCA) uptake level, YjdL Tyr25Leu: 14%
